# Values of other authors in patent publication US8048872B2, “Treatment of hyperproliferative diseases with vinca alkaloid N-oxide and analogs” (Stat of Oregon Acting by and Through The Oregon State Board …, priority 2006, dated 2011).
# Read-outs that look alike come from different tables or passages of the source.
# Details: cited from earlier work; for patients developing pneumonia: refractory chronic lymphocytic leukemia
# [1] = melanoma, 200 mg/m^2/d PO days 1-5, every 28 days, Grade III-IV
# [2] = melanoma, 200 mg/m^2/d PO days 1-5, every 28 days
# [3] = acute promyelocytic leukemia patients
molecule,measurement,setting,value
O=c1[nH]cc(F)c(=O)[nH]1 [5-Fluorouracil],Diarrhea,"human, in vivo, iv",Diarrhea* 22%
same,Hand-Foot Syndrome,"human, in vivo, iv",Syndrome* 14%
same,Leukopenia/Neutropenia Toxicity,"human, in vivo, iv",Grade III-IV 0%
same,Stomatitis,"human, in vivo, iv",Stomatitis* 31%
CC1=C(/C=C/C(C)=C/C=C/C(C)=C/C(=O)O)C(C)(C)CCC1 [ATRA],Hepatotoxicity,Maintenance Therapy (n = 94),Hepatotoxicity 5.3%
same,Infection,Maintenance Therapy (n = 94),Infection 7.4%
same,Life-Threatening Toxicity,Maintenance Therapy (n = 94),Toxicity 36%
same,Neurotoxicity,Maintenance Therapy (n = 94),Neurotoxicity 11.7%
CN(C)c1nc(N(C)C)nc(N(C)C)n1 [Altretamine],Anemia Grade III-IV,"human, in vivo, iv",Anemia Grade III-IV 2%
same,Fatigue,"human, in vivo, iv",Fatigue 9%
same,Nausea,"human, in vivo, iv",Nausea 14%
same,Neurologic,"human, in vivo, iv",Neurologic 2%
same,Vomiting,"human, in vivo, iv",Vomiting 12%
O=NN(CCCl)C(=O)NCCCl [BCNU (carmustine)],Nausea/Vomiting,Grade III-IV,Nausea/Vomiting 5%
same,Thrombocytopenia,Grade III-IV,Thrombocytopenia 21%
same,Leukopenia,Grade III,Grade III 4%
same,Leukopenia,Grade IV,Grade IV 1%
CCCCCOC(=O)Nc1nc(=O)n([C@@H]2O[C@H](C)[C@@H](O)[C@H]2O)cc1F [Capecitabine],Dehydration,"human, in vivo, iv",Dehydration 4%
same,Fatigue,"human, in vivo, iv",Fatigue 7%
same,Hyperbilirubinemia,"human, in vivo, iv",17.3%
same,Hyperglycemia,"human, in vivo, iv",Hyperglycemia 8.7%
same,Leukopenia/Neutropenia Toxicity,"human, in vivo, iv",Grade III-IV 3%
same,Nausea,"human, in vivo, iv",Nausea 4%
same,Stomatitis,"human, in vivo, iv",Stomatitis 3%
same,Vomiting,"human, in vivo, iv",Vomiting 4%
same,Leukopenia,"human, in vivo",Grade III 0.3%
N.N.[Cl][Pt][Cl] [Cisplatin],Anemia Grade III-IV,Grade III-IV,11%
same,Cardiovascular,Grade III-IV,Cardiovascular 2%
same,Leukopenia,Grade III-IV,Grade III-IV 7%
same,Neurologic,Grade III-IV,Neurologic 11%
same,Neutropenic Fever,Grade III-IV,Neutropenic Fever <1%
same,Renal,Grade III-IV,Renal 4%
same,Leukopenia,Grade III,Grade III 18%
same,Leukopenia,Grade IV,Grade IV 3%
same,Hearing Loss (clinical),"human, in vivo",12%
Nc1nc(Cl)nc2c1ncn2[C@H]1C[C@H](O)[C@@H](CO)O1 [Cladribine],Anemia Grade III-IV,Grade III-IV,22%
same,Documented Infection,Grade III-IV,Infections 13%
same,Leukopenia/Neutropenia Toxicity,Grade III-IV,Grade III-IV 87%
same,Neutropenic Fever,Grade III-IV,Neutropenic Fever 42%
same,Thrombocytopenia,Grade III-IV,Thrombocytopenia 20%
Nc1ccn([C@@H]2O[C@H](CO)[C@@H](O)[C@@H]2O)c(=O)n1 [Cytarabine],CNS Toxicities,"human, in vivo, iv",CNS Toxicities 12%
same,CNS Toxicities,"human, in vivo",(32% with age >60 yrs)
CN(C)/N=N/c1[nH]cnc1C(N)=O [Dacarbazine],Anemia Grade III-IV,"human, in vivo, iv",Anemia Grade III-IV 6%
same,Anemia Grade IV,"human, in vivo, iv",Anemia Grade IV 1%
same,Asthenia (Grade III),"human, in vivo, iv",Asthenia (Grade III) 1%
same,Constipation (Grade III),"human, in vivo, iv",(Grade III) 3%
same,Dyspnea,"human, in vivo, iv",Dyspnea 1%
same,Fatigue (Grade III),"human, in vivo, iv",Fatigue (Grade III) 2%
same,Fever (Grade III),"human, in vivo, iv",Fever (Grade III) 2%
same,Headache (Grade III),"human, in vivo, iv",Headache (Grade III) 1%
same,Leukopenia without neutropenia Grade III,"human, in vivo, iv",Grade III 1%
same,Nausea (Grade III),"human, in vivo, iv",Nausea (Grade III) 4%
same,Nausea/Vomiting,"human, in vivo, iv",Nausea/Vomiting 5%
same,Pain (Grade III),"human, in vivo, iv",Pain (Grade III) 13%
same,Somnolence (Grade III),"human, in vivo, iv",(Grade III) 1%
same,Vomiting (Grade III),"human, in vivo, iv",Vomiting (Grade III) 4%
CC(=O)O[C@@]12CO[C@@H]1C[C@H](O)[C@@]1(C)C(=O)[C@H](O)C3=C(C)[C@@H](OC(=O)[C@H](O)[C@@H](NC(=O)OC(C)(C)C)c4ccccc4)C[C@@](O)([C@@H](OC(=O)c4ccccc4)[C@H]21)C3(C)C [Docetaxel],Alopecia,Grade III-IV,Alopecia 13%
same,Asthenia,Grade III-IV,Asthenia 16%
same,Diarrhea,Grade III-IV,Diarrhea 8%
same,Fatigue/Asthenia,Grade III-IV,Fatigue/Asthenia 10%
same,Febrile Neutropenia,Grade III-IV,Febrile Neutropenia 33%
same,Hypersensitivity Reaction,Grade III-IV,Reactions 3%
same,Leukopenia/Neutropenia Toxicity,Grade III-IV,Grade III-IV 93%
same,Nausea,Grade III-IV,Nausea 5%
same,Nausea/Emesis,Grade III-IV,Nausea/Emesis 10%
same,Neuropathy,Grade III-IV,Neuropathy 3%
same,Neurosensory,Grade III-IV,Neurosensory 5%
same,Neutropenic Fever,Grade III-IV,Neutropenic Fever 9%
same,Severe Fluid Retention,Grade III-IV,8%
same,Stomatitis,Grade III-IV,Stomatitis 9%
same,Thrombocytopenia,Grade III-IV,Thrombocytopenia 4%
same,Vomiting,Grade III-IV,Vomiting 3%
same,Granulocytopenia,Grade III,Grade III 6%
same,Leukopenia,Grade III,Grade III 8%
same,Thrombocytopenia,Grade III,(Grade III) 6%
same,Granulocytopenia,Grade IV,Grade IV 72%
same,Neutropenic Infection,"human, in vivo, iv",(Grade III-IV) 11%
COc1cccc2c1C(=O)c1c(O)c3c(c(O)c1C2=O)C[C@@](O)(C(=O)CO)C[C@@H]3O[C@H]1C[C@H](N)[C@H](O)[C@H](C)O1 [Doxorubicin],Cardiotoxicity,"human, in vivo, iv",Cardiotoxicity 1%
same,Gastrointestinal,"human, in vivo, iv",Gastrointestinal 3%
same,Infection,"human, in vivo, iv",Infection 3%
same,Leukopenia/Neutropenia Toxicity,"human, in vivo, iv",Grade III-IV 8%
same,Leukopenia/Neutropenia Toxicity Grade III-IV,"human, in vivo, iv",Grade III-IV 51%
same,Leukopenia/Neutropenia Toxicity Grade IV,"human, in vivo, iv",Grade IV 21%
same,Mucositis,"human, in vivo, iv",Mucositis 6%
same,Nausea/Vomiting,"human, in vivo, iv",Nausea/Vomiting 13%
same,Thrombocytopenia,"human, in vivo, iv",Thrombocytopenia 2%
Nc1nc(F)nc2c1ncn2[C@@H]1O[C@H](CO)[C@@H](O)[C@@H]1O [Fludarabine],Diarrhea,Grade III-IV,Diarrhea 2%
same,Nausea,Grade III-IV,Nausea 3%
same,Neuropathy,Grade III-IV,Neuropathy 4%
same,Stomatitis,Grade III-IV,Stomatitis 2%
same,Thrombocytopenia,Grade III-IV,Thrombocytopenia 25%
same,Neutropenia,Grade IV (of cycles),Neutropenia 56%
same,Febrile Infection During Cycles 1-3,"human, in vivo",Cycles 1-3 30%
CN(Cc1cnc2nc(N)nc(N)c2n1)c1ccc(C(=O)N[C@@H](CCC(=O)O)C(=O)O)cc1 [Methotrexate],Hepatotoxicity (Grade III),"human, in vivo",24.4% (all ages)
same,Hepatotoxicity (Grade IV),"human, in vivo",2.4% (all ages)
CC(=O)O[C@H]1C(=O)[C@@]2(C)[C@H]([C@H](OC(=O)c3ccccc3)[C@]3(O)C[C@H](OC(=O)[C@H](O)[C@@H](NC(=O)c4ccccc4)c4ccccc4)C(C)=C1C3(C)C)[C@]1(OC(C)=O)CO[C@@H]1C[C@@H]2O [Paclitaxel],Increased AST,"human, in vivo, iv",Increased AST 5%
same,Leukopenia/Neutropenia Toxicity,"human, in vivo, iv",Grade III-IV 23%
Cn1nnc2c(C(N)=O)ncn2c1=O [Temozolomide],Anemia Grade III-IV,Grade III-IV,Anemia Grade III-IV 1%
same,Asthenia,Grade III-IV,Asthenia 6%
same,Fatigue,Grade III-IV,Fatigue 5%
same,Fever,Grade III-IV,Fever 2%
same,Headache,Grade III-IV,Headache 6%
same,Nausea,Grade III-IV,Nausea 10%
same,Thrombocytopenia,Grade III-IV,Thrombocytopenia 6%
same,Vomiting,Grade III-IV,Vomiting 6%
same,Leukopenia,grade not given,Leukopenia 2%
same,Neutropenia,grade not given,Neutropenia 2%
same,Fever,[1],Fever 2%
same,Headache,[1],Headache 6%
same,Thrombocytopenia,[1],Thrombocytopenia 7%
same,Vomiting,[1],Vomiting 5%
same,Anemia Grade III-IV,[2],Anemia Grade III-IV 2%
same,Asthenia (Grade III),[2],Asthenia (Grade III) 3%
same,Constipation (Grade III),[2],(Grade III) 3%
same,Fatigue (Grade III),[2],Fatigue (Grade III) 3%
same,Nausea (Grade III),[2],Nausea (Grade III) 4%
same,Neutropenia Grade III,[2],Grade III 1%
same,Neutropenia Grade IV,[2],Grade IV 2%
same,Pain (Grade III),[2],Pain (Grade III) 7%
O=C1CCC(N2C(=O)c3ccccc3C2=O)C(=O)N1 (centres unmarked) [Thalidomide],Anemia Grade III-IV,"human, in vivo",3.6%
same,Thrombocytopenia,"human, in vivo",Thrombocytopenia 3.6%
CC[C@@]1(O)C(=O)OCc2c1cc1n(c2=O)Cc2cc3c(CN(C)C)c(O)ccc3nc2-1 [Topotecan],Anorexia,"human, in vivo, iv",Anorexia 1%
same,Diarrhea,"human, in vivo, iv",Diarrhea 1%
same,Fatigue,"human, in vivo, iv",Fatigue 5%
same,Neutropenic Sepsis,"human, in vivo, iv",Neutropenic Sepsis 5%
same,Sepsis,"human, in vivo, iv",Sepsis 9%
same,Severe Bleed,"human, in vivo, iv",Severe Bleed <1%
same,Stomatitis,"human, in vivo, iv",Stomatitis 2%
same,Leukopenia/Neutropenia Toxicity,"human, in vivo",Grade III 15%
CCC1=C[C@@H]2CN(C1)Cc1c([nH]c3ccccc13)[C@@](C(=O)OC)(c1cc3c(cc1OC)N(C)[C@H]1[C@@](O)(C(=O)OC)[C@H](OC(C)=O)[C@]4(CC)C=CCN5CC[C@]31[C@@H]54)C2 [Vinorelbine],Anemia Grade III-IV,"human, in vivo, iv",Anemia Grade III-IV 5%
same,Constipation,"human, in vivo, iv",Constipation 3%
same,Diarrhea,"human, in vivo, iv",4%
same,Neurologic,"human, in vivo, iv",Neurologic 9%
same,Neuropathy,"human, in vivo, iv",Neuropathy 1%
same,Neutropenic Infection,"human, in vivo, iv",<1%
same,Neutropenic Sepsis,"human, in vivo, iv",Neutropenic Sepsis 3%
same,Stomatitis,"human, in vivo, iv",Stomatitis <1%
same,Thrombocytopenia,"human, in vivo, iv",Thrombocytopenia 1%
"CC1=C(/C=C/C(C)=C/C=C/C(C)=C/C(=O)O)C(C)(C)CCC1 [all-trans-retinoic acid, reference compound]",lethal pulmonary toxicity,[3],2%
same,life-threatening pulmonary toxicity,[3],11%
same,patients developing grade III or IV pulmonary toxicity (total),[3],Twenty
same,severe pulmonary toxicity,[3],7%
"Nc1nc(F)nc2c1ncn2[C@@H]1O[C@H](COP(=O)(O)O)[C@@H](O)[C@@H]1O [fludarabine phosphate, reference compound]",patients developing pneumonia,15-25 mg/m^2 daily for five days every 28 days,22%
same,patients developing pneumonia,22-40 mg/m^2 daily for five days every 28 days,16%
"Nc1ccn([C@@H]2O[C@H](CO)[C@@H](O)C2(F)F)c(=O)n1 [gemcitabine, reference compound]",Constipation,"human, in vivo, iv",Constipation 3%
same,Deep Vein Thrombosis,"human, in vivo, iv",3%
same,Diarrhea,"human, in vivo, iv",Diarrhea 2%
same,Edema,"human, in vivo, iv",Edema 5%
same,Fever,"human, in vivo, iv",Fever 3%
same,Increased Bilirubin,"human, in vivo, iv",Increased Bilirubin 41%
same,Neutropenic Fever,"human, in vivo, iv",Neutropenic Fever 3%
same,Pain,"human, in vivo, iv",Pain 2%
same,Respiratory,"human, in vivo, iv",Respiratory 5%
same,State of Consciousness,"human, in vivo, iv",Consciousness 2%
same,patients with grade III-IV respiratory toxicity,"human, in vivo, iv",2 out of 40
same,Anemia Grade III,"human, in vivo",Anemia Grade III 14.3%
same,Hepatotoxicity,"human, in vivo",(Grade III) 14.3%
same,Infection,"human, in vivo",(Grade III) 3.6%
same,Leukopenia,"human, in vivo",10.7%
same,Leukopenia/Neutropenia Toxicity,"human, in vivo",Grade III 19%
same,Skin Rash,"human, in vivo",(Grade III) 3.6%
Alemtuzumab,Anemia Grade III-IV,Grade III-IV,38%
same,Bronchitis/Pneumonitis,Grade III-IV,13%
same,Dyspnea,Grade III-IV,Dyspnea 9%
same,Fatigue,Grade III-IV,Fatigue 5%
same,Fever,Grade III-IV,Fever 19%
same,Hypotension,Grade III-IV,Hypotension 5%
same,Neutropenia,Grade III-IV,64%
same,Pneumonia,Grade III-IV,Pneumonia 10%
same,Rigors,Grade III-IV,Rigors 16%
same,Sepsis,Grade III-IV,Sepsis 10%
same,Thrombocytopenia,Grade III-IV,Thrombocytopenia 50%
same,Urticaria,Grade III-IV,Urticaria 5%
